The values below are quoted from earlier work in patent US20130172186A1 (priority 2010, published 2013).

Read-outs that look alike come from different tables or passages of the source.

One data set concerns P. cinnamomi. Particulars: 40 μg/ml phosphonate in culture, 4 days later.
Data set [1] has as its system phytoalexins and phenols in potato tubers. Particulars: tubers from treated plants after P. infestans challenge.

Regarding phosphonate, the “P. cinnamomi growth inhibited” value in the data set on P. cinnamomi is given as “about 70%”.

Turning to phosphite, the “observed instances in which pathogen growth was arrested at the local hypersensitive cell death sites” value in the data set on P. nicotianae (fosetyl-Al (100 μg/ml)- or phosphite (70 μg/ml)-treated tobacco seedlings, in 24 h) is given as 86%.

As to `CCO[PH](=O)O` [fosetyl-Al, aluminium tris(o-etyl phosphonate)], in data set [1], the “increase of accumulation of phenols vs control tubers” value is given as “fivefold” and the “increase of accumulation of phytoalexins vs control tubers” value is listed as “approximately tenfold”. For the same compound, the “observed instances in which pathogen growth was arrested at the local hypersensitive cell death sites” value in the data set with P. nicotianae (in vivo) is 86%.
